Measured values taken from ChEMBL document CHEMBL3611987, “Design and synthesis of conformationally constrained hydroxylated 4-phenyl-2-aryl chromenopyridines as novel and selective topoisomerase II-targeted antiproliferative agents” (Bioorg Med Chem, 2015).

Key:
HCT-15 = experiment: Cytotoxicity against human HCT15 cells after 2 days by CCK8 assay; type: functional, cell-based; conditions: HCT-15, 48 h
[1] = molecular target: T1, DNA topoisomerase 1 (Homo sapiens) (UniProt P11387); experiment: Inhibition of human recombinant DNA topoisomerase 1 assessed as relaxation of supercoiled pBR322 DNA at 100 uM after 30 mins using ethidium bromide staining by agarose gel electrophoresis
T1 sequence (whole entry): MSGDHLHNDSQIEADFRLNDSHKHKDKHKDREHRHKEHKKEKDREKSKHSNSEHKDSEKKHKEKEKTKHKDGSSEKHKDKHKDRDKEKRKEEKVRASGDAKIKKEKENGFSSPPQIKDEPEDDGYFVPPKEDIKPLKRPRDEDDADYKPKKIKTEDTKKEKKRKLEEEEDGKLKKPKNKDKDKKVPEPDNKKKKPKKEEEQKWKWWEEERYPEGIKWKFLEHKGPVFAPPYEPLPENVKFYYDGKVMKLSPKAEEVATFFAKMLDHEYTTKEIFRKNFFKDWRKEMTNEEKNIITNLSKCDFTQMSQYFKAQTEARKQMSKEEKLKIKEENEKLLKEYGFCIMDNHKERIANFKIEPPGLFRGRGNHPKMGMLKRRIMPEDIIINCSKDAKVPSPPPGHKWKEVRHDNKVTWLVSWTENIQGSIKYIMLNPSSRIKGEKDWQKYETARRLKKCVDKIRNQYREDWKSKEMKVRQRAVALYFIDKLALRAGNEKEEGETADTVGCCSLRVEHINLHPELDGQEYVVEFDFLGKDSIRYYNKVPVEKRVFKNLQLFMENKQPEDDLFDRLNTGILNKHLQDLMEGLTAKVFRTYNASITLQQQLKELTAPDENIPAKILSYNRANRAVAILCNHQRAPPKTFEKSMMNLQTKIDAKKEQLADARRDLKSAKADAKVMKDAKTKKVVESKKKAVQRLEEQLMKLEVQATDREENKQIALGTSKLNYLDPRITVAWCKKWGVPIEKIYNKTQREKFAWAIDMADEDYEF

[2] = Cytotoxicity against human MCF10A cells after 2 days by CCK8 assay; type: cell-based; conditions: MCF-10A, 48 h
T47D = experiment: Cytotoxicity against human T47D cells after 2 days by CCK8 assay; type: functional, cell-based; conditions: 48 h
DU-145 = experiment: Cytotoxicity against human DU145 cells after 2 days by CCK8 assay; type: functional, cell-based; conditions: DU-145, 48 h
[3] = molecular target: DNA topoisomerase 2-alpha (Homo sapiens) (UniProt P11388); experiment: Inhibition of human DNA topoisomerase 2alpha assessed as relaxation of supercoiled pBR322 DNA at 20 uM after 30 mins using ethidium bromide staining by agarose gel electrophoresis
Chain of DNA topoisomerase 2-alpha (Homo sapiens) (P11388 whole entry): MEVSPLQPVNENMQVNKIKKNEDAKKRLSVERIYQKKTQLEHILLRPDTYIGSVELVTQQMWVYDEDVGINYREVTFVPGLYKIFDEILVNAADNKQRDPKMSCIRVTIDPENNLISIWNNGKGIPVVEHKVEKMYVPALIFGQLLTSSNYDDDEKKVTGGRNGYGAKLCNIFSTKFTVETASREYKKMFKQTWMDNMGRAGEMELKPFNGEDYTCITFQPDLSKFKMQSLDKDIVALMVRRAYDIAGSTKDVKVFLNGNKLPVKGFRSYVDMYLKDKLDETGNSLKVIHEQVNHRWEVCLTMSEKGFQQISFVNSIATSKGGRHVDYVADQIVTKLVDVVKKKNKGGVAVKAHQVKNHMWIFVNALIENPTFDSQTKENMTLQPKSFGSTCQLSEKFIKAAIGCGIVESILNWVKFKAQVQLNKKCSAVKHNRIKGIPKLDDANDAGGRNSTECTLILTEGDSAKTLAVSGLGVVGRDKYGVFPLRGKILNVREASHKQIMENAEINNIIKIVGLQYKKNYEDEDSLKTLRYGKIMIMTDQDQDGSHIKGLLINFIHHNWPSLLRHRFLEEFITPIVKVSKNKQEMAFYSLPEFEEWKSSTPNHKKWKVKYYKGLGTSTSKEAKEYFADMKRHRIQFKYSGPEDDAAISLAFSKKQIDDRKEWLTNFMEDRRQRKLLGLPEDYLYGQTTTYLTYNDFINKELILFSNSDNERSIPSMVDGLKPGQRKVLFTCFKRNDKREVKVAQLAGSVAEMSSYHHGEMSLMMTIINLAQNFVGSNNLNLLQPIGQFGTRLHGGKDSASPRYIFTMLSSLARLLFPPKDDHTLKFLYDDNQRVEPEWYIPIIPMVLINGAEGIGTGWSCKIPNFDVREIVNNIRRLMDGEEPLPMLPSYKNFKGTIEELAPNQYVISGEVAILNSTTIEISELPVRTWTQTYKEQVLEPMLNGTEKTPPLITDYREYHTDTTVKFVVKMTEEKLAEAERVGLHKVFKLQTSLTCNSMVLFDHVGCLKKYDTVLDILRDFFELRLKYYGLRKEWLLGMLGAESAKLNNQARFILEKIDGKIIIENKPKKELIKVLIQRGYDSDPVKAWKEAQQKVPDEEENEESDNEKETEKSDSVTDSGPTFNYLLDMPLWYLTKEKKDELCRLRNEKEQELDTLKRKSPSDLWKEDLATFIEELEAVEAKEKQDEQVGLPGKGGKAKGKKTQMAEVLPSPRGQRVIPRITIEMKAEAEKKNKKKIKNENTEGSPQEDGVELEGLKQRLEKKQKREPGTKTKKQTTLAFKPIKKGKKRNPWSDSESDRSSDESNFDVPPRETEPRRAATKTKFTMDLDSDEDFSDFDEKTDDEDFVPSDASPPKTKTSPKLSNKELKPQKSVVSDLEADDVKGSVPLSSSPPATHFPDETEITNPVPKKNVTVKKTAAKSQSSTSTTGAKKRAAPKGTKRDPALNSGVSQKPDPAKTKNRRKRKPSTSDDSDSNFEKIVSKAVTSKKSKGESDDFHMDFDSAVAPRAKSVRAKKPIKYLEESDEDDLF

[4] = molecular target: DNA topoisomerase 2-alpha (Homo sapiens) (UniProt P11388); experiment: Inhibition of human DNA topoisomerase 2alpha assessed as relaxation of supercoiled pBR322 DNA at 100 uM after 30 mins using ethidium bromide staining by agarose gel electrophoresis
[5] = molecular target: T1, DNA topoisomerase 1 (Homo sapiens); experiment: Inhibition of human recombinant DNA topoisomerase 1 assessed as relaxation of supercoiled pBR322 DNA at 20 uM after 30 mins using ethidium bromide staining by agarose gel electrophoresis

SMILES | inhibition [1] [%] | inhibition [3] [%] | inhibition [4] [%] | inhibition [5] [%] | IC50 (HCT-15) [nM] | IC50 [2] [nM] | IC50 (T47D) [nM] | IC50 (DU-145) [nM]
Oc1ccc(-c2cc(-c3ccccc3O)nc3c2COc2ccccc2-3)cc1 | 3.8 | 63.2 | 89.3 | – | 1560 | 24200 | 1290 | > 50000
Oc1cccc(-c2cc(-c3ccsc3)nc3c2COc2ccccc2-3)c1 | 68.6 | 31.7 | 100 | 0 | 1220 | 7260 | 1180 | 3000
CC[C@@]1(O)C(=O)OCc2c1cc1n(c2=O)Cc2cc3ccccc3nc2-1 [CAMPTOTHECIN] | – | – | – | – | 300 | 970 | 80 | –
COc1cccc2c1C(=O)c1c(O)c3c(c(O)c1C2=O)C[C@@](O)(C(=O)CO)C[C@@H]3O[C@H]1C[C@H](N)[C@H](O)[C@H](C)O1 [DOXORUBICIN] | – | – | – | – | – | 1230 | 1880 | 950
Oc1ccc(-c2cc(-c3ccc(O)cc3)c3c(n2)-c2ccccc2OC3)cc1 | 2.8 | 10.3 | 97.2 | – | 690 | 1900 | 780 | 3800
Oc1ccccc1-c1cc(-c2ccco2)nc2c1COc1ccccc1-2 | 3.9 | 17 | 91.5 | – | 2010 | 7980 | 2980 | 2450
Oc1ccccc1-c1cc(-c2ccsc2)nc2c1COc1ccccc1-2 | 3.3 | 29.7 | 100 | – | 3170 | 7170 | 2740 | 740
COc1cc([C@@H]2c3cc4c(cc3[C@@H](O[C@@H]3O[C@@H]5CO[C@@H](C)O[C@H]5[C@H](O)[C@H]3O)[C@H]3COC(=O)[C@H]23)OCO4)cc(OC)c1O [ETOPOSIDE] | – | – | – | – | 2600 | 10100 | 940 | 13100
Oc1ccccc1-c1cc(-c2cccs2)nc2c1COc1ccccc1-2 | 3.5 | 4.8 | 95.7 | – | 1940 | 5640 | 2720 | 5970
Oc1ccc(-c2cc(-c3cccs3)nc3c2COc2ccccc2-3)cc1 | 1 | 25.8 | 91.7 | – | 1520 | 6240 | 1210 | 830
Oc1ccc(-c2cc(-c3ccsc3)nc3c2COc2ccccc2-3)cc1 | 0 | 18.1 | 100 | – | 1660 | 5830 | 1900 | 390
Oc1cccc(-c2cc(-c3cccs3)nc3c2COc2ccccc2-3)c1 | 6.6 | 41.2 | 99 | – | 3170 | 6440 | 2240 | 860
Oc1ccc(-c2cc(-c3ccco3)nc3c2COc2ccccc2-3)cc1 | 0.5 | 6.8 | 95.6 | – | 1230 | 6880 | 850 | 4450
Oc1cccc(-c2cc(-c3ccco3)nc3c2COc2ccccc2-3)c1 | 1.4 | 0 | 84.9 | – | 4770 | 8800 | 3590 | 3100

Now from value to molecule, other results behind:

inhibition [1] [%] | inhibition [3] [%] | inhibition [4] [%] | inhibition [5] [%] | SMILES | IC50 (HCT-15) [nM] | IC50 [2] [nM] | IC50 (T47D) [nM] | IC50 (DU-145) [nM]
1.5 | 10.9 | 94.8 | – | Oc1cccc(-c2cc(-c3ccccc3)nc3c2COc2ccccc2-3)c1 | 3030 | 8520 | 760 | 2330
5.3 | 1.8 | 93 | – | Oc1ccc(-c2cc(-c3cccc(O)c3)c3c(n2)-c2ccccc2OC3)cc1 | 2980 | 4640 | 2370 | 2060
2.4 | 33.7 | 88.6 | – | Oc1cccc(-c2cc(-c3ccccc3O)nc3c2COc2ccccc2-3)c1 | 2110 | 4610 | 3420 | 6370
0 | – | – | – | c1ccc(-c2cc(-c3ccccc3)c3c(n2)-c2ccccc2OC3)cc1 | – | 6580 | 14200 | –
3.6 | 10 | 84.7 | – | Oc1ccccc1-c1cc(-c2ccccc2)nc2c1COc1ccccc1-2 | 3470 | 8200 | 3820 | 5010
3.3 | 4.8 | 92.1 | – | Oc1cccc(-c2cc(-c3ccccc3O)c3c(n2)-c2ccccc2OC3)c1 | 1010 | 3420 | 2170 | 630
7.6 | 8 | 93.6 | – | Oc1ccc(-c2cc(-c3ccccc3O)c3c(n2)-c2ccccc2OC3)cc1 | 1660 | 2740 | 2090 | 1950
1.8 | 7.6 | 93.5 | – | Oc1ccc(-c2cc(-c3cccc(O)c3)nc3c2COc2ccccc2-3)cc1 | 550 | 2420 | 670 | 810
2.4 | 47.9 | 78 | – | Oc1ccccc1-c1cc(-c2ccccc2O)c2c(n1)-c1ccccc1OC2 | 3580 | 8760 | 2760 | 4690
2.1 | 16.1 | 94.1 | – | Oc1ccc(-c2cc(-c3ccccc3)nc3c2COc2ccccc2-3)cc1 | 15100 | 6350 | 1350 | 1560
4.3 | 1.9 | 93.3 | – | Oc1cccc(-c2cc(-c3cccc(O)c3)c3c(n2)-c2ccccc2OC3)c1 | 4110 | 5810 | 1770 | 1580
